Assay results taken from PMC3573960 (Molecular Neurodegeneration, 2012).

Key:
[1] = tested on: Tg2576 mice; assay: Acute treatment study in Tg2576 mice, brain Aβ by ELISA after TBS extraction; conditions: 4 h
Protocol: Aβ peptide levels were quantified by sandwich ELISA. Plates were coated overnight at 4°C with either human anti-AβTotal (amino acids [aa] 27–37) or rodent anti-Aβ1-x (aa 1–8) rabbit polyclonal antibodies. For detection of Aβ38 and Aβ42, plates were coated with antibodies specific for the carboxyl-terminal neoepitope of each peptide. Antibodies were from Dr. Pankaj Mehta (Institute for Basic Research in Developmental Disabilities, Staten Island, NY) [58].
The 10 and 30 mg/kg doses were a solution and a suspension, respectively. […] After extraction of the brain, olfactory bulbs and hindbrain were removed and the cerebral hemispheres were cut into 4 pieces. […] All tissue samples were weighed, frozen in liquid nitrogen, and stored at −80°C until analysis.
In order to examine both soluble and insoluble pools of Aβ, sequential extraction of Tg2576 mouse brain samples was performed to produce 4 pools of Aβ, essentially as described elsewhere [37]. Briefly, brains were homogenized in 25 mM TBS, pH 7.4 with protease inhibitors (Mini Complete™) to release the soluble Aβ into the resulting supernatants after high speed ultracentrifugation. […] The extracted Aβ from each step was subjected to ELISA for human Aβ42, Aβ38, and AβTotal, as described above.

[2] = tested on: Tg2576 mice; assay: Chronic treatment of Tg2576 mice, sequentially extracted brain Aβ by ELISA; type: in vivo, mouse; conditions: 50 weeks
Source text: Male Tg2576 and WT mice were both derived from crosses of male Tg2576 mice and female B6SJLF1 mice (Taconic) and were singly housed upon arrival. […] Some animals were euthanized as described above. For histological studies, a subset of mice were euthanized by CO2 asphyxiation and transcardially perfused with cold 0.9% NaCl. […] The left cerebral hemisphere was cut into 2 pieces, weighed, and frozen.

[3] = tested on: γ-secretase; assay: H4-APP751 cell-based assay for secreted Aβ peptides (sandwich ELISA); parameters: species or system human; conditions: H4-APP751 cells, up to 3 μM
Protocol: Human neuroglioma H4 cells (ATCC, Manassas, VA) were transfected with a pcDNA3.1 (Invitrogen, Carlsbad, CA) plasmid expressing human wild type APP751 cDNA; and a stable cell line was generated using G418 (Invitrogen) selection [55]. Prior to experimentation, H4-APP751 cells were maintained in Dulbecco’s modified Eagle’s high glucose medium with 10% fetal bovine serum, 1% penicillin-streptomycin, 2 mM L-glutamine, and 0.4 mg/mL G418. All culture reagents were from Invitrogen.
Plates were incubated overnight (16–18 h) and supernatant was removed for quantification of Aβ peptides by sandwich ELISA. Cytotoxicity was evaluated using CellTiter 96® AQueous One Solution Cell Proliferation Assay (MTS Assay, Promega, Madison, WI) according to the manufacturer’s protocol.
Aβ peptide levels were quantified by sandwich ELISA. […]
Freshly collected samples of cultured cell supernatant or synthetic peptides (American Peptide Co., Sunnyvale, CA or California Peptide Research, Inc., Napa, CA) for standard curves were diluted with media, and loaded into anti-Aβ antibody-coated plates and incubated at 4°C for about 24 h. Aβ peptides were detected with the 4G8 antibody (Aβ, aa 17–24) conjugated to horseradish peroxidase (Covance, Inc., Princeton, NJ), and SureBlue 3,3’,5,5’-tetramethylbenzidine (TMB) peroxidase substrate (KPL, Inc., Gaithersburg, MA). […]

[4] = target: T1, COX-2 (Homo sapiens, UniProt P35354); assay: COX-2 enzyme assay (Cerep); type: biochemical; conditions: at 30 μM, human recombinant, arachidonic acid 2 μM
T1 construct: purchased Cerep (Redmond, WA) 0727; host or cells: Sf9
T1 sequence (P35354 18-604): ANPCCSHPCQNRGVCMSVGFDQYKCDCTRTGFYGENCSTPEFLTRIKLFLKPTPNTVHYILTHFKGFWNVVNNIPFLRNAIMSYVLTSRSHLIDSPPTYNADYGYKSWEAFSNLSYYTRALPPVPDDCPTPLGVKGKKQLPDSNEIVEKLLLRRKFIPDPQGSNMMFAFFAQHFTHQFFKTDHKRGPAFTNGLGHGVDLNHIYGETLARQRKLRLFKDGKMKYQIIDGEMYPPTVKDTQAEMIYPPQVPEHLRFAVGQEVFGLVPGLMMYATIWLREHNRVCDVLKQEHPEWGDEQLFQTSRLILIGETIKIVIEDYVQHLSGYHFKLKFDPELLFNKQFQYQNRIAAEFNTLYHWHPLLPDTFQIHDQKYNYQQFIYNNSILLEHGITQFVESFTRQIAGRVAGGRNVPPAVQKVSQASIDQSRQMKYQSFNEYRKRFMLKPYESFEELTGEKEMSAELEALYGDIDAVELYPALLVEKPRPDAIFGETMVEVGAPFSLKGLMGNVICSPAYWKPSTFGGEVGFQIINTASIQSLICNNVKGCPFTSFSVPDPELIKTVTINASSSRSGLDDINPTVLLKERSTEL
Protocol: (§1) COX-1 and COX-2 enzyme assays were performed by Cerep (Redmond, WA, Catalog # 0726 and 0727). Briefly, the assays used human recombinant Sf9 cells and arachidonic acid (4 μM for COX-1 and 2 μM for COX-2) as the substrate. Production of PGE2 was detected by enzyme immunoassay.

[5] = tested on: Tg2576 mice; assay: Tolerability in chronic treatment study (body weight, organs, survival); type: in vivo, mouse
Protocol: (§2) Male Tg2576 and WT mice were both derived from crosses of male Tg2576 mice and female B6SJLF1 mice (Taconic) and were singly housed upon arrival. […] Some animals were euthanized as described above. For histological studies, a subset of mice were euthanized by CO2 asphyxiation and transcardially perfused with cold 0.9% NaCl. The right hemispheres were immersion fixed in fresh 4% paraformaldehyde in 0.1 M phosphate buffer, pH 7.4 for 1 h, transferred to a 15% sucrose cryoprotectant for 24 h at room temperature, and on the next day, frozen in isopentane chilled by dry ice for 1 min. The left cerebral hemisphere was cut into 2 pieces, weighed, and frozen.

[6] = tested on: Tg2576 mice; assay: Contextual fear conditioning assay
Protocol: Animals in the food formulation groups were maintained on the compound formulated diets. The training session on day 1 consisted of the following sequence: 3 min acclimation to the test chamber (Kinder Scientific, Poway, CA), 2 s 1.5 mA foot shock, 2 min wait period, another 2 s 1.5 mA foot shock, followed by a final 1 min wait period. On day 2, testing consisted of returning the animals to the chamber for 5 min and the total time spent freezing was measured by an automated software system (Kinder Scientific). […] Percentage of time spent freezing for each mouse was calculated using the formula: (number of seconds with zero beam breaks/300) X 100.

[7] = tested on: Tg2576 mice; assay: Amorfix A4 assay of aggregated Aβ in Tg2576 mouse brain; type: in vivo; conditions: 50 weeks
Protocol: as §2
The A4 assay (Amorfix Life Sciences, Toronto, Canada) was employed to quantify levels of aggregated Aβ in Tg2576 mouse brains. […] Aβ was detected by immunoassay following incubation at 37°C with europium-fluorescent beads coupled to the mouse monoclonal 4G10 antibody (N-terminal Aβ, aa 1–17) and magnetic beads coupled to the antibodies 1F8 (C-terminal Aβ, aa 3–40) and 2H12 (C-terminal Aβ, aa 3–42). […] The intensity of the europium fluorescent signal was measured using time resolved fluorescence on each sample in triplicate and was taken as being directly proportional to the concentration of aggregated Aβ in the sample. […]

[8] = target: T2, COX-1 (Homo sapiens, UniProt P23219); assay: COX-1 enzyme assay (Cerep); type: biochemical; conditions: human recombinant, arachidonic acid 4 μM
T2 construct: purchased Cerep (Redmond, WA) 0726; host or cells: Sf9
T2 sequence (P23219 24-599): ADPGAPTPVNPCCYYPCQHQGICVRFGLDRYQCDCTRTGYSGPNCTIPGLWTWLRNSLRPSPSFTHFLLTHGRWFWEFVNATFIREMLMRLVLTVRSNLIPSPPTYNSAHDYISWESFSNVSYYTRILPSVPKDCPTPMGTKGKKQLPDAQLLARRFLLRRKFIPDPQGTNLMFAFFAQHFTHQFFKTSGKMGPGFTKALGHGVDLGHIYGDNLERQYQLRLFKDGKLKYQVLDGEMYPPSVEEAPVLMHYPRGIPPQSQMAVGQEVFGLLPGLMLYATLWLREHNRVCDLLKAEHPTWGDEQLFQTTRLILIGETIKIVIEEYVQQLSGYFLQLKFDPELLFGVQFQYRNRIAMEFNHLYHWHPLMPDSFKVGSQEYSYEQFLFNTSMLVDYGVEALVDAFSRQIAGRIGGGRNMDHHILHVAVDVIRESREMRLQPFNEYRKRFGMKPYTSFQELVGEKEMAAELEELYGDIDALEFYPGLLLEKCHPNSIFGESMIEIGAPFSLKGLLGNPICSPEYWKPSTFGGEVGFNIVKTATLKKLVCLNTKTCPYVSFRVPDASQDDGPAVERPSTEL
Protocol: as §1

[9] = tested on: Aph1AL containing γ-secretase complexes; assay: Cell-free γ-secretase assay, Aβ1-40 and Aβ1-42 by AlphaLisa; type: biochemical, murine
Source text: DAPT was used as a reference positive control for the assay. For each assay condition, a 5-μL microsomal fraction, containing 1% CHAPSO (3-[(3-cholamidopropyl)dimethylammonio]-2-hydroxy-1-propanesulfonate) from murine embryonic fibroblasts (MEF) lacking the Aph-1A, Aph-1B, and Aph-1C genes [60] […] The other half of the reaction mixture was used to analyze the levels of Aβ1-40 and Aβ1-42 by AlphaLisa (Perkin Elmer, Waltham, MA).

O=C(O)[C@H](CC1CCC1)c1cc(Cl)c(OCC(F)(F)F)c(-c2ccc(C(F)(F)F)cc2)c1 [EVP-0015962, (R)-2-(5-chloro-6-(2,2,2-trifluoroethoxy)-4’-(trifluoromethyl)biphenyl-3-yl)-3-cyclobutylpropanoic acid]
decrease in brain Aβ42 compared to vehicle-treated mice ([1]; 10 mg/kg p.o., TBS extraction (NS)): 22% | decrease in brain Aβ42 compared to vehicle-treated mice ([1]; 30 mg/kg p.o., TBS extraction (p < 0.05)): 39% | brain AβTotal ([1]; 10 or 30 mg/kg p.o.): remained unchanged | Aβ38 in the TBS soluble fraction ([2]; 20 mg/kg/day): did not produce a significant increase | percent reduction in Aβ42 in the TBS soluble fraction ([2]; 20 mg/kg/day): 53% | reduction in AβTotal in the formic acid extractable fraction ([2]; 20 mg/kg/day): 49% | reduction in formic acid extractable Aβ42 ([2]; 20 mg/kg/day): 53% | age-related increase in soluble and insoluble Aβ42 ([2]; 60 mg/kg/day): prevented the dramatic increase | increase in Aβ38 in the TBS soluble fraction ([2]; 60 mg/kg/day): 78% | percent reduction in Aβ42 in the TBS soluble fraction ([2]; 60 mg/kg/day): 89% | reduction in AβTotal in the formic acid extractable fraction ([2]; 60 mg/kg/day): 64% | reduction in formic acid extractable Aβ42 ([2]; 60 mg/kg/day): 86% | Aβ38 in the formic acid extractable fraction ([2]; 20 or 60 mg/kg/day): not significantly changed | AβTotal in the TBS soluble fraction ([2]; 20 or 60 mg/kg/day): unchanged | age-related increase in Aβ42 ([2]; lower dose (20 mg/kg/day)): partially effective | levels of AβTotal [3]: remained unchanged | percent inhibition for COX-2 [4]: 56% | mortality (percent of group lost) ([5]; Tg2576 mice, 60 mg/kg/day, 50 weeks): 25% | body weight among the treatment groups ([5]; Tg2576 mice, 20 or 60 mg/kg/day, 50 weeks): no significant differences | effects on intestinal goblet cells or any other organ system examined ([5]; satellite animals, up to 60 mg/kg/day, 11 weeks): no evidence of effects | genotype-associated deficit in percent freezing (CFC) ([6]; 20 or 60 mg/kg/day in food, 11 weeks (p < 0.01)): reversed | genotype-associated deficit in percent freezing (CFC) ([6]; single dose 30 mg/kg p.o., 3 h prior to training): did not reverse this deficit | reduction in aggregated Aβ ([7]; 20 mg/kg/day): 19% | reduction in aggregated Aβ compared to the control diet group ([7]; 60 mg/kg/day): 73% | IC50 [8]: > 10 µM | levels of Aβ40 in the cell-free assay [9]: without affecting
